We go through 19 molecules from US5393923A, “3,5-di-t-butyl-4-hydroxyphenylmethylhydroxylamines and their derivatives, pharmaceutical compositions, and methods of use therefor” (Warner-Lambert Company, priority 1993, dated 1995).

The target in one experiment is T1, cyclooxygenase (Rattus norvegicus, UniProt Q63921).
T1 construct: host or cells: RBL-1
T1 sequence (Q63921 27-602): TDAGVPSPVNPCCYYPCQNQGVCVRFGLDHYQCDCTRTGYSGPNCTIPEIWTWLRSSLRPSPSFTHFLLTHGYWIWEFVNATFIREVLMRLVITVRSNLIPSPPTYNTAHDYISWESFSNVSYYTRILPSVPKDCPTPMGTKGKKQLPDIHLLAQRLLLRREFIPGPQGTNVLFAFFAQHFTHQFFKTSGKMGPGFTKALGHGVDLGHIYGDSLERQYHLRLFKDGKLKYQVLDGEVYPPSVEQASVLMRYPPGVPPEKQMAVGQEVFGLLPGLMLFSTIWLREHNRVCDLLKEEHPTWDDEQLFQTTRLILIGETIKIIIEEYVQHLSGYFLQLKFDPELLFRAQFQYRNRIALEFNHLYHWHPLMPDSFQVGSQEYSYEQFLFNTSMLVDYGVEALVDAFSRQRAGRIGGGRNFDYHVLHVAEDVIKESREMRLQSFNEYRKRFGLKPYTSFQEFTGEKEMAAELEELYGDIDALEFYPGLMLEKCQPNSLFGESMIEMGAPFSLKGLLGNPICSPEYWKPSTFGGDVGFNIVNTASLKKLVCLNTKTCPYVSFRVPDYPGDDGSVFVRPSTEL
Briefly: ARBC whole cell cyclooxygenase assay (PGF2α formation, RBL-1 cells). It counts as cell-based. Here is the method:
(§1) ARBL/ARBC WHOLE CELL 5-LIPOXYGENASE AND CYCLOOXYGENASE ASSAYS The rat basophilic leukemia cell line (RBL-1) was obtained from the American Type Culture Collection (Rockville, Md.). Radioimmunoassay (RIA) kits of LTB4 and PGF2α were obtained from Amersham (Arlington Heights, Ill.) and Seragen (Boston, Mass.), respectively. RBL-1 cells are grown in suspension culture in Eagle's minimum essential medium supplemented with 12% fetal bovine serum at 37° C. in an incubator supplied with air-5% carbon dioxide. Cells are harvested by centrifugation. They are washed with cold phosphate-buffered saline, pH 7.4 (PBS; NaCl, 7.1 g; Na2 HPO4, 1.15 g; KH2 PO4, 0.2 g; and KCl, 0.2 g/L). Cells are finally suspended in PBS containing 1.0 mM calcium at a density of 2×10^6 cells/mL. Cells are incubated […] test agent (in DMSO) (1% DMSO is without effect on arachidonic acid metabolism) for 10 minutes at room temperature. Calcium ionophore A23187 (5 μM) is added and cells are incubated for 7 minutes at 37° C. The reaction is stopped by chilling the tubes on ice for 10 minutes. Cells are separated by centrifugation and the supernatant is stored at -20° C. Aliquots (100 μL) are analyzed for LTB4 and PGF2α using radioimmunoassay kits as provided by the supplier. Table 1 contains biochemical data for compounds of Formula I obtained from this whole cell assay as amount of inhibition at given μM or IC50 s which are calculated as the concentration of a test compound in micromoles (μM) causing 50% inhibition of LTB4 or PGF2αformation.

The next experiment deals with T2, 5-lipoxygenase (Rattus norvegicus, UniProt P12527).
T2 construct: host or cells: RBL-1
T2 sequence (P12527 1-673): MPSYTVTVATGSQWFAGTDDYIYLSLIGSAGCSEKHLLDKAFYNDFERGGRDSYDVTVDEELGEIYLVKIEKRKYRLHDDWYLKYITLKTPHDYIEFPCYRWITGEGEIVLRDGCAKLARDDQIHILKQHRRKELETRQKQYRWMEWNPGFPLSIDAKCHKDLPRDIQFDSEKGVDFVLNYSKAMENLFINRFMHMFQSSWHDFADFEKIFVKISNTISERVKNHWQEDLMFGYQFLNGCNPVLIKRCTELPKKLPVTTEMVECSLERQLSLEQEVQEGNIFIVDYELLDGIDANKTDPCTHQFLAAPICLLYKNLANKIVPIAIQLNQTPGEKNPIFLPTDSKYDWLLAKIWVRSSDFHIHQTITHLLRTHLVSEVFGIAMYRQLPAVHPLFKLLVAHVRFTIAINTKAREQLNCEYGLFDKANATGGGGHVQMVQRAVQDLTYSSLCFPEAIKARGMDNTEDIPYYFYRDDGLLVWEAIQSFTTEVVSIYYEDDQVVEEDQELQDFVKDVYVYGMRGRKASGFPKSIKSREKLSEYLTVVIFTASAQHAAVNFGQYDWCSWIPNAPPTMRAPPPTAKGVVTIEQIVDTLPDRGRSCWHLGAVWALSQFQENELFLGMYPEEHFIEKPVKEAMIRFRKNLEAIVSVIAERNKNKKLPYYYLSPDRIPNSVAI
Briefly: ARBL whole cell 5-lipoxygenase assay (LTB4 formation, RBL-1 cells). The format is cell-based. Here is the method:
as §1

Experiment [1] concerns carrageenan-induced rat foot paw edema. The experiment is described as follows: Carrageenan-induced rat foot paw edema-2 (CFE-2) assay. It counts as in vivo. The settings on record: dosed 1 hour before carrageenan, edema measured 5 hours after, read-out: CFE ID40. Here is the method: CARRAGEENAN-INDUCED RAT FOOT PAW EDEMA-2 (CFE-2) ASSAY: PROTOCOL
Carrageenan solution (1% w/v) is prepared by dissolving 100 mg carrageenan (Marine Colloidal Div., Springfield, N.J.) in 10 mL of sterile saline (0.9%) solution (Travenol). The solution is vortexed for 30 to 45 minutes. Animals are dosed with compound 1 hour before carrageenan challenge. Foot paw edema is induced by injecting 0.10 mL of the 1% carrageenan subcutaneously into the plantar portion of the right hind paw of each rat under light anesthesia. Initial foot paw volume is measured immediately following carrageenan challenge using mercury plethysmography (Buxco Electronics). Edema is measured 5 hours after carrageenan. The difference between the 5-hour and the initial paw volume is expressed as delta edema. The delta edema for each test group of animals is used to calculate the percent inhibition of edema achieved by the compound at the test dose compared with the vehicle control group. The ID40 (the dose at which swelling is inhibited by 40%) is calculated by probit analysis for the dose at which 40% inhibition occurs.

Setting [2] is: A23187, class symbol, read-out: ARBC inhibition at given concentration (N).
Setting [3] is: A23187, read-out: ARBL inhibition of LTB4 at given concentration.
Setting [4] is: A23187, class symbol, read-out: ARBL inhibition at given concentration (N).

Counter-ions that a name gives are not always drawn. Like-named read-outs stand apart in the source and are kept apart here.

`CC(C)C(=O)N(O)C(C)c1cc(C(C)(C)C)c(O)c(C(C)(C)C)c1` (stereo not shown) [Example 4, N-[1-[3,5-Bis(1,1-dimethylethyl)-4-hydroxyphenyl]-ethyl]-N-hydroxy-2-methylpropanamide]: the inhibition at 16 µM on cyclooxygenase (setting [2]) is less than 40%; at 5-lipoxygenase (setting [3]), greater than 91%.

On to `CC(=O)N(O)C(C)c1cc(C(C)(C)C)c(O)c(C(C)(C)C)c1` (stereo not shown) [Example 5, N-[1-[3,5-Bis(1,1-dimethylethyl)-4-hydroxyphenyl]-ethyl]-N-hydroxyacetamide], for which the inhibition at 16 µM at cyclooxygenase (setting [2]) was less than 40%; at 5-lipoxygenase (setting [3]), greater than 90%.

For the molecule `CCOC(=O)N(O)C(C)c1cc(C(C)(C)C)c(O)c(C(C)(C)C)c1` (stereo not shown) [Example 6, [1-[3,5-Bis(1,1-dimethylethyl)-4-hydroxyphenyl]-ethyl]hydroxycarbamic acid, ethyl ester], the inhibition at 16 µM on cyclooxygenase (setting [2]) is less than 40%; at 5-lipoxygenase (setting [3]) it was greater than 96%.

On to `CNC(=S)N(O)C(C)c1cc(C(C)(C)C)c(O)c(C(C)(C)C)c1` (stereo not shown) [Example 7, N-[1-[3,5-Bis(1,1-dimethylethyl)-4-hydroxyphenyl]-ethyl]-N-hydroxy-N'-methylthiourea], for which the inhibition at 16 µM at cyclooxygenase (setting [2]) and at 5-lipoxygenase (setting [4]) was less than 40% in each case.

Turning to `CNC(=O)N(O)C(C)c1cc(C(C)(C)C)c(O)c(C(C)(C)C)c1` (stereo not shown) [Example 8, N-[1-[3,5-Bis(1,1-dimethylethyl)-4-hydroxyphenyl]-ethyl]-N-hydroxy-N'-methylure], the inhibition at 16 µM at cyclooxygenase (A23187, read-out: ARBC inhibition of PGF2α at given concentration) is 45%; at 5-lipoxygenase (setting [4]) it was less than 40%.

Consider `CCNC(=O)N(O)C(C)c1cc(C(C)(C)C)c(O)c(C(C)(C)C)c1` (stereo not shown) [Example 9, N-[1-[3,5-Bis(1,1-dimethylethyl)-4-hydroxyphenyl]-ethyl]-N'-ethyl-N-hydroxyurea], for which the values for the inhibition at 16 µM on cyclooxygenase (setting [2]) and at 5-lipoxygenase (setting [3]) were less than 40% and greater than 91%, respectively.

Regarding `CC(c1cc(C(C)(C)C)c(O)c(C(C)(C)C)c1)N(O)C(N)=O` (stereo not shown) [Example 10, N-[1-[3,5-Bis(1,1-dimethylethyl)-4-hydroxylphenyl]-ethyl]-N-hydroxyurea], the inhibition at 16 µM is less than 40% on cyclooxygenase (setting [2]) and 79% on 5-lipoxygenase (setting [3]).

Regarding `CCOC(=O)NC(=S)N(O)C(C)c1cc(C(C)(C)C)c(O)c(C(C)(C)C)c1` (stereo not shown) [Example 11, [[[1-[3,5-Bis(1,1-dimethylethyl)-4-hydroxyphenyl]-ethyl]hydroxyamino]-thioxomethyl]carbamic acid, ethyl ester, acetate (10:3)], the inhibition at 16 µM on cyclooxygenase (setting [2]) is less than 40%; on 5-lipoxygenase (setting [3]), 91%.

As to `CC(=O)ON(Cc1cc(C(C)(C)C)c(O)c(C(C)(C)C)c1)C(C)=O` [Example 12, N-(Acetyloxy)-N-[[3,5-bis(1,1-dimethylethyl)-4-hydroxyphenyl]methyl]acetamide, 0.3 hydrate], the inhibition at 16 µM at cyclooxygenase (setting [2]) was less than 40%; on 5-lipoxygenase (setting [3]), 95%.

For `CC(C)C(=O)ON(Cc1cc(C(C)(C)C)c(O)c(C(C)(C)C)c1)C(=O)C(C)C` [Example 13, N-[[3,5-Bis(1,1-dimethylethyl)-4-hydroxyphenyl]-methyl]-2-methyl-N-[2-methyl-1-oxopropoxy]propanamide], the inhibition at 16 µM on cyclooxygenase (setting [2]) is less than 40%; at 5-lipoxygenase (setting [3]) it was 49%.

For the molecule `CC(C)C(=O)N(O)Cc1cc(C(C)(C)C)c(O)c(C(C)(C)C)c1` [Example 14, N-[[3,5-Bis(1,1-dimethylethyl)-4-hydroxyphenyl]-methyl]-N-hydroxy-2-methylpropanamide], the inhibition at 16 µM at cyclooxygenase (setting [2]) is less than 40%; at 5-lipoxygenase (setting [3]), 95%.

As for `CC(=O)N(O)Cc1cc(C(C)(C)C)c(O)c(C(C)(C)C)c1` [Example 15], the inhibition at 16 µM was less than 40% at cyclooxygenase (setting [2]) and 90% at 5-lipoxygenase (setting [3]).

For `CONC(c1ccccc1)c1cc(C(C)(C)C)c(O)c(C(C)(C)C)c1` (stereo not shown) [Example 18, 2,6-Bis(1,1-dimethylethyl)-4-[(methoxyamino)phenylmethyl]phenol, monohydrochloride], the inhibition at 10 µM at cyclooxygenase (setting [2]) was less than 40%; at 5-lipoxygenase (setting [3]), 93%.

As to `CC(C)C(=O)N(O)C(c1ccccc1)c1cc(C(C)(C)C)c(O)c(C(C)(C)C)c1` (stereo not shown) [Example 21, N-[[3,5-Bis(1,1-dimethylethyl)-4-hydroxyphenyl]-phenylmethyl]-N-hydroxy-2-methylpropanamide], the ED40 in experiment [1] was determined as 5.3 mg/kg.

With `CCOC(=O)N(O)C(c1ccccc1)c1cc(C(C)(C)C)c(O)c(C(C)(C)C)c1` (stereo not shown) [Example 23, N-[[3,5-Bis(1,1-dimethylethyl)-4-hydroxyphenyl]-phenylmethyl]hydroxycarbamic acid, ethyl ester], the inhibition at 16 µM on cyclooxygenase (setting [2]) is less than 40%; on 5-lipoxygenase (setting [3]), 97%.

`CCNC(=O)N(O)C(c1ccccc1)c1cc(C(C)(C)C)c(O)c(C(C)(C)C)c1` (stereo not shown) [Example 24, N-[[3,5-Bis(1,1-dimethylethyl)-4-hydroxyphenyl]-phenylmethyl]-N'-ethyl-N-hydroxyurea]: the inhibition at 16 µM on cyclooxygenase (setting [2]) was less than 40%; on 5-lipoxygenase (setting [3]), 99%.

With `CNC(=O)N(O)C(c1ccccc1)c1cc(C(C)(C)C)c(O)c(C(C)(C)C)c1` (stereo not shown) [Example 25, N-[[3,5-Bis(1,1-dimethylethyl)-4-hydroxyphenyl]-phenylmethyl]-N-hydroxy-N'-methylurea], the inhibition at 16 µM at cyclooxygenase (setting [2]) is less than 40%; on 5-lipoxygenase (setting [3]), 93%.

In the case of `CNC(=S)N(O)C(c1ccccc1)c1cc(C(C)(C)C)c(O)c(C(C)(C)C)c1` (stereo not shown) [Example 26, N-[[3,5-Bis(1,1-dimethylethyl)-4-hydroxyphenyl]-phenylmethyl]-N-hydroxy-N'-methylthiourea], the inhibition at 16 µM at cyclooxygenase (setting [2]) is less than 40%; at 5-lipoxygenase (setting [3]) it was 98%.

Consider `CC(C)(C)c1cc(C(c2ccccc2)N(O)C(N)=O)cc(C(C)(C)C)c1O` (stereo not shown) [Example 27, N-[[3,5-Bis(1,1-dimethylethyl)-4-hydroxyphenyl]-phenylmethyl]-N-hydroxyurea], for which the values for the inhibition at 10 µM at cyclooxygenase (setting [2]) and at 5-lipoxygenase (setting [3]) were less than 40% and 97%, respectively.
